Measured values as given in article PMC6930622, “Validation of an HPLC Method for the Simultaneous Quantification of Metabolic Reaction Products Catalysed by CYP2C11 Enzymes in Rat Liver Microsomes: In Vitro Inhibitory Effect of Salicylic Acid on CYP2C11 Enzyme” (Molecules, 2019).

Target: T1, CYP2C11 (Rattus norvegicus, UniProt P08683)
T1 sequence (P08683 1-500): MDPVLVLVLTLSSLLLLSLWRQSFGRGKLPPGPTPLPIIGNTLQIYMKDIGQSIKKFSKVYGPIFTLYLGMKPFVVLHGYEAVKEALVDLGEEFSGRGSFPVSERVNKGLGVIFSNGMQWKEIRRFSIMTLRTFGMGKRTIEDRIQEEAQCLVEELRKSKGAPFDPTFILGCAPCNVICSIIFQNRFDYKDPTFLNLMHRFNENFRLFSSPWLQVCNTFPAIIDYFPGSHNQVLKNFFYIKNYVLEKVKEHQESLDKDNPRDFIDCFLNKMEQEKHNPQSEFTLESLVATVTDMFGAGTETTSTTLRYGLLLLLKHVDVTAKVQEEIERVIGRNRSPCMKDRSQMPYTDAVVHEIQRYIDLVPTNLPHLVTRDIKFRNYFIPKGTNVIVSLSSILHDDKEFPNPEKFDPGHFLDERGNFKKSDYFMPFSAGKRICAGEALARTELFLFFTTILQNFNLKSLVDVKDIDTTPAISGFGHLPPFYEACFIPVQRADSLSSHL
Experiment: testosterone […]α-hydroxylation in pooled male Sprague-Dawley rat liver microsomes, HPLC; Lineweaver-Burk
Type: biochemical

## O=C(O)c1ccccc1O [salicylic acid]
  Ki: 84.6 ± 2.67 µM
